# Results reported in patent US20090305888A1, “Materials and Methods for Providing Oxygen to Improve Seed Germination and Plant Growth” (priority 2006, published 2009).
# Like-named read-outs stand apart in the source and are kept apart here.
# Tests used:
# ADH of corn roots = assay: ADH activity of roots of flooded corn plants (FIG. 23); type: in vivo; conditions: flooded for 3 days
# [1] = Oxygen release from peroxides in water or nutrient solution and its adjustment; type: physicochemical; conditions: for oxygen level as nutrient strength increases: nutrient solution with or without companion cations, FIGS. 17 and 18; for increase of oxygen liberated per millimole of EDTA: slope of linear fit, FIG. 10
# Method: One hundred milligrams of each of the above solid compositions comprising oxidizing agents was put in a 50 ml polypropylene tube, respectively, unless specialized. 50 ml de-ionized water or nutrient solution was put into the tubes. The strength of the nutrient solutions was 25%, 50%, 100%, 200% or 400% of Yan's formula (Yan, F. et al., “Adaptation of active proton pumping and plasmalemma ATPase activity of corn roots to low root medium pH,” Plant Physiology, 117:311-319 (1998)). The oxygen solutions were allowed to equilibrate over night before any measurements were made.
# Oxygen contents in the solutions were determined with an oxygen electrode and ASET system (Applicable Electronics, Inc). Calibration was made by nitrogen aerating deionized water and air equilibrated deionized water. The deionized water consists of 0% oxygen level and the air equilibrated deionized water consists of 21% oxygen content. The temperature of the deionized water was measured and recorded for every measurement. The actual oxygen content in the deionized water at a specific temperature was derived from a handbook of chemistry (David R. Lide, Handbook of Chemistry and Physics, 79th Edition, 1998-1999, pp. 8-87). A regressive equation was formed based on data from calibration calculations and the handbook. All of the observed values were changed into oxygen contents in micromoles through the regressive equation.
# Different levels of companion cations of peroxides or chelate were added to the sample solutions. For example, EDTA was added to the 50 ml tubes with peroxide solutions. The peroxide solutions were made in both deionized water and nutrient solutions. After equilibrating overnight, the oxygen contents of the adjusted solutions were analyzed.
# [2] = Solubility product (Ksp) of the peroxides; type: physicochemical
# ADH of corn seedlings [3] = assay: ADH activity of flooded corn seedlings grown in soil in pots with oxygen fertilizers (FIG. 28); type: in vivo
# Method: ADH and NR were extracted in the same extraction buffer including 50 mM Tris-HCl (pH 8.0), 1 mM EDTA, 12 μM mercaptoethanol, and 0.05 mg DTT/ml. Frozen root tissues were ground rapidly in a chilled mortar and pestle with the above chilled extraction buffer. The homogenate was centrifuged at 15 000 g at 4° C. for 15 minutes. One hundred μl of supernatant was added to 800 μl of reaction solution containing 50 mM Tris-HCl buffer at pH 9.0, 1 mM EDTA, and 1 mM NAD. The assay uses 15% (v/v) ethanol as the substrate and measures the production of NADH. Measurement of NADH formation was performed in a spectrophotometer (DU 64, Beckman Instruments, Fullerton, Calif.) for 60 seconds at 340 nm. A unit of ADH is defined as the production of 1 nmol of NADH min^−1 mg^−1 protein.
# Bald cypress seedlings = assay: Flooding and salinity of Bald cypress seedlings; type: in vivo; conditions: 8 ppt salinity
# Source text: Bald cypress is a plant of great ecological and economic significance in Florida. However, these tough, tolerant, inexpensive and somewhat idiosyncratic trees are at the heart of a fast-disappearing ecosystem. Flooding and salinity caused by hurricanes have accelerated the disappearance of the species. Five basins were set up to mimic flooding basins to study the effects of a solid composition of the invention on alleviating the impact of flooding and salinity on Bald cypress seedlings. These basins were established by using plastic swimming pools with 185×152×23 cm plastic tubs for the combined treatment of flooding and salinity to bald cypress seedlings.
# Five levels of salinity were presented: 0, 2, 4, 6 and 8 ppt in sodium chloride. Three flooding levels were presented: 0%, 50% and 100% root submergence. 0% flooding level consisted of 100% of the pots being above the water surface; 50% flooding level consisted of 50% of the height of the pots being submerged; and 100% flooding level consisted of 100% of the height of the pots being submerged.
# Two oxygen bioavailable levels were provided for those seedlings that were fully flooded with 8 ppt salinity: (1) with composition comprising oxidizing agent or (2) without composition comprising oxidizing agent in the potted soil. […] Survival rates of the potted seedlings were observed and calculated for each of the treatments.
# corn root = conditions: nutrient solution with 1 mM H2O2 for two days, air bubbling (normoxia), FIG. 31
# Method: Each of the untreated 1.5 mm borosilicate glass capillaries (cat no. TW150-4) of 10 cm length was pulled into two micropipettes through a Sutter P-97 at 545° C. The freshly pulled micropipettes were silanized at 200° C. with N,N-Dimethyltrimethylslylamine according to Smith's method (Smith, P J S et al., “Self-referencing, non-invasive, ion selective electrode for single cell direction of trans-plasma membrane,” Microscopy Research and Technique, 46:398-417 (1999)).
# The micropipettes were backfilled with a H^+ probe backfilling solution of 50 mM KCl and 50 mM HK2PO4.
# A rubber groove of 20 cm in length, 5 cm in width, and 1 cm in height was connected to the pot with 1800 ml nutrient solution via a peristaltic pump (Model: 77120-62, 12 VDC 1 AMP, Mfg by Barnant Company) and non-permeable oxygen tubing. One radicle root was appropriately stabilized in the groove with 4 to 5 Minucie stainless-steel needles. Microelectrodes were calibrated before and after each experiment. Calibrations were done in standard pH 6, 7, and 8 solutions (Fisher Scientific) at 25° C. […] Following calibration, the microelectrode was positioned on the targeted radicle root. The scanning started from the root tip and the root was scanned 100 μm by 100 μm near the root tip. Then the scanning intervals were adjusted gradually from 200 μm to 1000 μm or even longer. About 20000 μm along the root was scanned. […]
# [4] = test system: Alcohol dehydrogenase (ADH) of corn embryos; conditions: 3/2000 hydrogen peroxide, embryos facing downward, 48 hours after germination at 25° C., FIG. 4
# Method: Alcohol dehydrogenase (“ADH”) activities of corn embryos placed in environments with different concentrations of bioavailable oxygen at 48 hours after germination at 25° C. were observed. Before germination, corn seeds were soaked in 0.5 mM CaSO4 solution, in aeroponics, or in 3/2000 H2O2 for 24 hours. All of the embryos were exposed to air except for one sample group treated with water, which was placed into soil.
# Following treatment, each corn seed was cut into two halves on the embryo. Four halves of embryos were homogenized in extraction buffer including 50 mM Tris-HCl (pH 8.0), 1 mM EDTA, 0.5 mg/ml DTT, and 12 μM mercaptoethanol. The suspension solution of the enzyme was centrifuged twice at 15000 rpm for 5 min in order to separate oil (on the top) from pellets (at the bottom). The supernatant from the second centrifuge was used to measure ADH activity.
# 100 μl of the enzyme solution and 900 μl of reaction solution that included 50 mM Tris-HCl (pH 9.0), 1 mM EDTA, and 1 mM NAD were incubated in 1.5 ml Eppendorf tubes in a water bath at 30° C. for 3 min. Then, 100 μl 15% ethanol and the reaction solution were added directly to cuvette. Reaction time was 1 min. in the cuvette at 340 nm. The assay uses ethanol as the substrate and measures the production of NADH. […] The relative ADH activity was calculated based on taking the ADH activity of corn seeds germinated in aeroponics as 100%.
# ADH of corn seedlings [5] = conditions: nutrient solution of 2 mM hydrogen peroxide, FIG. 26
# Method: The enzyme assay was performed according to the procedures described by Chung and Ferl (“Arabidopsis Alcohol Dehydrogenase Expression in Both Shoots and Roots Is Conditioned by Root Growth Environment,” Plant Physiol, 121:429-436 (1999)) and modified slightly. ADH and NR were extracted in the same extraction buffer including 50 mM Tris-HCl (pH 8.0), 1 mM EDTA, 12 μM mercaptoethanol, and 0.05 mg DTT/ml. Frozen root tissues were ground rapidly in a chilled mortar and pestle with the above chilled extraction buffer. The homogenate was centrifuged at 15 000 g at 4° C. for 15 minutes. One hundred μl of supernatant was added to 800 μl of reaction solution containing 50 mM Tris-HCl buffer at pH 9.0, 1 mM EDTA, and 1 mM NAD. The assay uses 15% (v/v) ethanol as the substrate and measures the production of NADH. Measurement of NADH formation was performed in a spectrophotometer (DU 64, Beckman Instruments, Fullerton, Calif.) for 60 seconds at 340 nm. A unit of ADH is defined as the production of 1 nmol of NADH min^−1 mg^−1 protein.
# [6] = test system: nitrate reductase (NR) of corn seedlings; conditions: nutrient solution of 2 mM hydrogen peroxide, FIG. 27
# Method: NR assays were performed essentially as described by the protocol of Datta and Sharma (Rupali Datta and Rameshwar Sharma, “Temporal and spatial regulation of nitrate reductase and nitrite reductase in green maize leaves,” Plant Science, 144:77-83 (1999)). NR activity was measured immediately. 200 μl of supernatant was added to 800 μl of reaction solution consisting of 50 mM Tris-HCl buffer (pH 8.0), 1 mM EDTA, 100 μM NADH, 10 mM KNO3 and 1 μM Na2MoO4 in a 2 ml eppendorf tube. The reaction was performed in a water bath of 30° C. and terminated after 60 min by adding 500 μl of an equal volume of sulfanilamide (1% [w/v] in 3 n HCl) and naphthylethylene-diamine dihydrochloride (0.05% [w/v]) to the reaction mixture. The samples were colorimetrically measured at 540 nm. One unit of NR activity was defined as the amount required to produce 1 nmol of nitrite min^−1 mg^−1 protein.
# corn seeds [7] = conditions: 3/2000 hydrogen peroxide for one day, embryos or endosperm, FIG. 6
# Method: The tested seeds were stabilized as described above. The seed samples were soaked in 0.5 mM CaSO4 solution with or without 3/2000 hydrogen peroxide for one day before any measurements were made. Pt/Ir oxygen electrodes were used. The microelectrodes were calibrated before and after each experiment. Calibrations were performed in deionized water saturated with air (which includes 21% oxygen concentration) and then bubbled with nitrogen gas for at least 30 min (so as to provide 0% oxygen concentration). Ten scans were done on either embryos or endosperms.
# [8] = test system: corn seed embryos or endosperms; conditions: 3/2000 hydrogen peroxide for one day, medium 100 μM CaCl2, FIG. 5
# Method: 1.5 mm borosilicate glass capillaries (cat no. TW150-4) that were 10 cm in length were pulled into two micropipettes through a Sutter P-97 at 545° C. The freshly pulled micropipettes were silanized at 200° C. with N,N-Dimethyltrimethylslylamine according to Smith's method (Smith, P J S et al., “Self-referencing, non-invasive, ion selective electrode for single cell direction of trans-plasma membrane,” Microscopy Research and Technique, 46:398-417 (1999)).
# Micropipettes were backfilled with H^+ probe backfilling solution of 50 mM KCl and 50 mM HK2PO4.
# 45 g of Sylgard 184 silicone elastomer and 5 g of Sylgard 184 curing agent (Dow Corporation, USA) were poured into the bottom of a 10 cm Pyrex dish in order to provide a medium for stabilizing the tested treated seeds. One seed was appropriately stabilized in the center of the Pyrex dish with 4 to 5 stainless-steel needles.
# Microelectrodes were calibrated before and after each experiment. Calibrations were performed at standard pH 6, 7, and 8 solutions (Fisher Scientific) at 25° C. The Nernst Slopes (in mV decade^−1) were equal or close to 59. Following calibration, the microelectrode was positioned on both the embryos and endosperm of the targeted seed. Then, the embryo and endosperm were, respectively, scanned 100 μm by 100 μm. At least 10 scans were done on either embryo or endosperm.
# corn seeds [9] = conditions: for germination rate: FIG. 2
# Method: Corn seeds of FR27 x FRM017 (GRADE: 24RD) were provided by Illinois Foundation Seeds Inc. Two sets of seeds were used: one set of seeds consisted of fresh seeds and the other set of seeds consisted of seeds that were […].
# H2O2 methods: 30 seeds and 50 ml 0.5 mM Ca (as CaSO4) with 3/5000, 3/4000, 3/3000, 3/2000, 3/1000 or 3/100 H2O2, separately, were placed into 9 cm dishes. The seeds were soaked in these solutions for 24 hours and then put on and covered by wet napkins. The napkins were wetted in the soaking solutions, respectively.
# [10] = cited from earlier work
compound,measurement,setting,value
[Ca+2].[O-][O-] [calcium peroxide],ADH level compared with control,ADH of corn roots; 18 g per pot,almost as good as the control
same,ADH activity in roots as more solid composition was used,ADH of corn roots,the less ADH activity observed in the tested roots
same,oxygen released into water,"[1]; 500 mg solid composition in 50 ml deionized water, FIG. 9",released more oxygen than magnesium peroxide
same,oxygen level as nutrient strength increases,[1],increases when the nutrient strength increases
same,increase of oxygen liberated per millimole of EDTA,[1],about 19 micromoles
same,Ksp relative to magnesium peroxide,[2],about 3000 times
same,effect on ADH of seedlings suffering from flooding,ADH of corn seedlings [3],greatly lowered the ADH of the seedlings suffering from flooding
same,death of seedlings,Bald cypress seedlings; 100% flooding,No seedlings died
same,growth of seedlings,"Bald cypress seedlings; 100% roots submerged for four days, 20 g per pot, FIG. 32",could grow
OO [hydrogen peroxide],protons excreted by roots relative to hypoxia or anoxia,corn root,seven to ten
same,diminished ADH activity,[4],about 40%
same,ADH level compared with control,ADH of corn seedlings [5],slightly higher that that of the control
same,ADH level compared with hypoxic seedlings,ADH of corn seedlings [5],greatly lower than those of hypoxic seedlings
same,NR level compared with hypoxic seedlings,[6],greatly lower than those of hypoxic seedlings
same,oxygen consumption rate relative to without hydrogen peroxide,corn seeds [7],about two
same,proton flux direction,[8],proton efflux occurs heavily
same,root lengths,"corn seeds [9]; 3/100 H2O2, third day after germination",6.8±1.7 mm
same,germination rates among varying concentrations of H2O2,"corn seeds [9]; 3/2000 H2O2, FIG. 1",the best germination rates
same,germination at 24 hours,"corn seeds [9]; 3/2000 H2O2, FIG. 3",all of the seeds were able to germinate at 24 hours
same,germination rate,"corn seeds [9]; 3/2000 H2O2, new seeds",95.6%
same,germination rate,"corn seeds [9]; 3/2000 H2O2, old seeds",94.4%
same,root lengths,"corn seeds [9]; 3/2000 H2O2, third day after germination",34.8±1.7 mm
same,germination rates of corn seeds compared with non-hydrogen peroxide exposure,"corn seeds [9]; H2O2 3/5000 to 3/100, 48 hours after germination, FIG. 1",significantly better germination rates than non-hydrogen peroxide exposure
[Mg+2].[O-][O-] [magnesium peroxide],ADH activity in roots as more solid composition was used,ADH of corn roots,the less ADH activity observed in the tested roots
same,oxygen level as nutrient strength increases,[1],very smooth when the nutrient strength increases
same,increase of oxygen liberated per millimole of EDTA,[1],about 14 micromoles
same,oxygen released by zero order constant release,[10]; after the first six days,90%
same,oxygen released by first order release,[10]; first six days,10%
same,effect on ADH of seedlings suffering from flooding,ADH of corn seedlings [3],greatly lowered the ADH of the seedlings suffering from flooding
O=C([O-])[O-].O=C([O-])[O-].OO.OO.OO.[Na+].[Na+].[Na+].[Na+] [sodium percarbonate],ADH level compared with flooded treatment,ADH of corn roots; 5 g,almost as bad as the flooded treatment without the supply of solid compositions
same,ADH activity in roots as more solid composition was used,ADH of corn roots,the less ADH activity observed in the tested roots
